Target: T1, human Nav1.3 channels (Homo sapiens, UniProt Q9NY46)
T1 construct: expressed in transfected cells; host or cells: HEK293
Test: FRET assay, human Nav1.3 (EFS on FDSS)
Type: cell-based
Conditions: HEK293 cells expressing human Nav1.3, read-out: IC50 against Nav1.3
Method: The inhibitory activities of compounds against voltage gated sodium channels are determined by methodology well known in the art.
The ability of the aryl substituted carboxamide derivatives of the formula (I) to inhibit the NaV1.3, Nav1.7 and Nav1.5 channels is measured by Fluorescence Resonance Energy Transfer (FRET) assay and electrophysiology assay described below.
This screen is used to determine the effects of compounds on human Nav1.3, human Nav1.7, and human Nav1.5 channels, utilising electrical field stimulation (EFS) system in 96-well plate format on FDSS (Hamamatsu Photonics) platform. The change of membrane potential is monitored with FRET dye pair, oxonol (DiSBAC2(3)) and coumarin (CC2-DMPE).
Each HEK293 cells expressing human Nav1.3 channels and HEK293 cells expressing human Nav1.5 channels are grown in T225 flasks, in a 5% CO2 humidified incubator to about 80% confluence. Media composition consists of Dulbecco's Modified Eagle Medium (high glucose), 10% FCS, 100 units/mL Penicillin, 100 microgram/mL Streptomycin and 500 microgram/mL Geneticine.
Protocol: • Seed each cell lines (1×10^5 cells/well) into poly-D-lysine coated 96-well plates prior to experimentation. • Incubate at 37° C. in 5% CO2 for 24 hours. • Wash each well with assay buffer (140 mM NaCl, 4.5 mM KCl, 10 mM D-Glucose, 2 mM CaCl2, 1 mM MgCl2, 10 mM HEPES, pH 7.4 adjusted with NaOH) twice. • Add 1st loading solution containing 10 microM CC2-DMPE and 0.06% Pluronic F-127 in assay buffer. • Incubate the plate at room temperature in dark for 1 hour. • Remove 1st loading solution and added 2nd loading solution containing 15 microM DiSBAC2(3), 0.555 mM VABSC-1 and 0.004% Pluronic F-127 in assay buffer. • Place the plate under the dark at room temperature for 25 minutes. • Add compound solutions into the assay plate. • Set the assay plate in FDSS and placed an EFS device on the plate. • Measure EFS-induced fluorescent response by FDSS.
The data are analyzed and reported as normalized ratios of intensities measured at […]. The process of calculating these ratios is performed as follows:
This analysis is performed using a computerized specific program designed for FDSS generated data. Fluorescence ratio values are plotted using XLfit to determine an IC50 value for each compound.

T1 sequence (Q9NY46 whole entry): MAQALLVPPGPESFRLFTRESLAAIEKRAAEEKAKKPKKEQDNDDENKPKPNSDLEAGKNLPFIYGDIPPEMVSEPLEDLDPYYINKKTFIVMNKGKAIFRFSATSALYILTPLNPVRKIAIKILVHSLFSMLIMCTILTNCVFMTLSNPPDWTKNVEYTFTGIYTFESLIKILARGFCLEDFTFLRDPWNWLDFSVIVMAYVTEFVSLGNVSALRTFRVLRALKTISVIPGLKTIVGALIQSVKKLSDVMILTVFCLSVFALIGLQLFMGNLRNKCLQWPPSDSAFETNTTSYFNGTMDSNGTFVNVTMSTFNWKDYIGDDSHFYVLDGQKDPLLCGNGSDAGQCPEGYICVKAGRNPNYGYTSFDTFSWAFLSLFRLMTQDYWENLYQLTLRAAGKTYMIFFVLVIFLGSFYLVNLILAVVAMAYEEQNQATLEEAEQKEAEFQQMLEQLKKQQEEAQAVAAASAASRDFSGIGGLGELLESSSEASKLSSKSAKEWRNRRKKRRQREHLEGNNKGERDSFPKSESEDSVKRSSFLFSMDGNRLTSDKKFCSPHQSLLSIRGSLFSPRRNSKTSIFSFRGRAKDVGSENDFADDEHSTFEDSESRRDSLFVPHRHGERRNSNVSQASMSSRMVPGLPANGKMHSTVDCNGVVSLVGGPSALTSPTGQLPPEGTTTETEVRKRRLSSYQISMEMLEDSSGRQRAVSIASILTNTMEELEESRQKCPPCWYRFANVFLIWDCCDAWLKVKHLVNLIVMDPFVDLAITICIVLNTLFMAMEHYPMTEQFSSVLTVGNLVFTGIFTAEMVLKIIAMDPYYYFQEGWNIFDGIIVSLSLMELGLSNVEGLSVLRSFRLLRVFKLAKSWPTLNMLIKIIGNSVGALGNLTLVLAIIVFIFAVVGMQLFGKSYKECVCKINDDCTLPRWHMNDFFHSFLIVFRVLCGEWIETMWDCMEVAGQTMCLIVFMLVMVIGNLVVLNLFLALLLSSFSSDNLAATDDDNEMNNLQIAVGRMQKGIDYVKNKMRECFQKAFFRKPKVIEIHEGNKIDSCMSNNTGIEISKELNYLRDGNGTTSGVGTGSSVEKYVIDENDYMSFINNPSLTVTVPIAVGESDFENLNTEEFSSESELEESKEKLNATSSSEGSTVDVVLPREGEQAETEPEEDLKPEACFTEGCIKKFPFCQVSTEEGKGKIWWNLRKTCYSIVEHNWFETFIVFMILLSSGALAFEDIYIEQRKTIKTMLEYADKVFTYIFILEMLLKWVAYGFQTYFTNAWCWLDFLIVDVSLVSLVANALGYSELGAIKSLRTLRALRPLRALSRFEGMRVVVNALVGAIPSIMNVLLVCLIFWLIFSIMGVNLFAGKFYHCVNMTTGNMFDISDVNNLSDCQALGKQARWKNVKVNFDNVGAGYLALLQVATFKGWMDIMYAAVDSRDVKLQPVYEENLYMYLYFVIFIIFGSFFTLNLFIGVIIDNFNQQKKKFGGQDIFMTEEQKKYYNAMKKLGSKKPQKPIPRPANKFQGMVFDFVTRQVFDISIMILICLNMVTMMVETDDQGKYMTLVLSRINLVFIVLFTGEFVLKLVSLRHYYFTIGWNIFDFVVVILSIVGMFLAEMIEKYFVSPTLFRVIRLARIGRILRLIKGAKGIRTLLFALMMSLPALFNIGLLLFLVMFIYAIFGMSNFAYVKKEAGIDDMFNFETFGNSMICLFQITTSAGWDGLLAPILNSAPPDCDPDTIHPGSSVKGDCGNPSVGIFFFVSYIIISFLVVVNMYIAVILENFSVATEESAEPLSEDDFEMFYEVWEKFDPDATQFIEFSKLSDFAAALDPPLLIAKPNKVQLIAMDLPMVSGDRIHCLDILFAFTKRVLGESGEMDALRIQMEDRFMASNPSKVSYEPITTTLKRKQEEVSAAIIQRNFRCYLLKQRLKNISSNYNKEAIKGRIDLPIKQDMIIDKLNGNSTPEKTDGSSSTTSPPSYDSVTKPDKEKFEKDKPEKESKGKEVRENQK

Row | Structure (SMILES) | IC50 [nM]
1 | COc1nc(OCC(F)(F)F)ccc1CNC(=O)c1cc(C)nc(NC(=O)CC2CC2)c1 [Example 960, 2-(2-cyclopropylacetamido)-N-((2-methoxy-6-(2,2,2-trifluoroethoxy)pyridin-3-yl)methyl)-6-methylisonicotinamide] | < 1000
2 | O=C(NCc1ccc(COCC(F)(F)F)cc1)c1ccnc(NC(=O)C2CC2)c1 [Example 665, 2-(cyclopropanecarboxamido)-N-(4-((2,2,2-trifluoroethoxy)methyl)benzyl)isonicotinamide] | < 1000
3 | O=C(NCc1cc(OC(F)(F)F)ccc1F)c1ccnc(NC(=O)C2CC2)c1 [Example 608] | < 1000
4 | CCc1cc(CNC(=O)c2ccnc(NC(=O)C(C)C)c2)cnc1OCC(F)(F)F [Example 712, N-((5-ethyl-6-(2,2,2-trifluoroethoxy)pyridin-3-yl)methyl)-2-isobutyramidoisonicotinamide] | < 1000
5 | Cc1cc(C(=O)NCc2cc(C(F)(F)F)ccc2F)cc(NC(=O)C(C)C)n1 [Example 575, N-(2-fluoro-5-(trifluoromethyl)benzyl)-2-isobutyramido-6-methylisonicotinamide] | < 1000
6 | CC(=O)Nc1cc(C(=O)NCc2ccc(OC(F)(F)F)c(Cl)c2)ccn1 [Example 967, 2-acetamido-N-(3-chloro-4-(trifluoromethoxy)benzyl)isonicotinamide] | < 1000
7 | CCC(=O)Nc1cc(C(=O)NCc2cnc(OCC(F)F)c(C)c2)cc(C)n1 [Example 740, N-((6-(2,2-difluoroethoxy)-5-methylpyridin-3-yl)methyl)-2-methyl-6-propionamidoisonicotinamide] | < 1000
8 | Cc1ccc(OCC(F)(F)F)nc1CNC(=O)c1ccnc(NC(=O)C2CC2)c1 [Example 568, 2-(cyclopropanecarboxamido)-N-((3-methyl-6-(2,2,2-trifluoroethoxy)pyridin-2-yl)methyl)isonicotinamide] | < 1000
9 | O=C(NCc1cc(C(F)(F)F)ccc1F)c1ccnc(NC(=O)C2CC2)c1 [Example 573, 2-(cyclopropanecarboxamido)-N-(2-fluoro-5-(trifluoromethyl)benzyl)isonicotinamide] | < 1000

Further lines, results first:

Row | IC50 [nM] | Structure (SMILES)
10 | < 1000 | CC(=O)Nc1cc(C(=O)NCc2cccc(C(F)(F)F)c2F)cc(C)n1 [Example 729, 2-acetamido-N-(2-fluoro-3-(trifluoromethyl)benzyl)-6-methylisonicotinamide]
11 | < 1000 | O=C(NCc1cnc(OCC(F)(F)F)c(Cl)c1)c1ccnc(NC(=O)C2CC2)c1 [Example 95, N-((5-chloro-6-(2,2,2-trifluoroethoxy)pyridin-3-yl)methyl)-2-(cyclopropanecarboxamido)isonicotinamide]
12 | < 1000 | CC(C)C(=O)Nc1cc(C(=O)NCc2ccc(OCC(F)(F)C(F)(F)F)nc2)ccn1 [Example 641, 2-isobutyramido-N-((6-(2,2,3,3,3-pentafluoropropoxy)pyridin-3-yl)methyl)isonicotinamide]
13 | < 1000 | CCc1cc(CNC(=O)c2cc(C)nc(NC(C)=O)c2)cnc1OCC(F)(F)F [Example 713, 2-acetamido-N-((5-ethyl-6-(2,2,2-trifluoroethoxy)pyridin-3-yl)methyl)-6-methylisonicotinamide]
14 | < 1000 | CC(NC(=O)c1ccnc(NC(=O)C2CC2)n1)c1ccc(OCC(F)(F)C(F)(F)F)nc1 (single isomer, unassigned) [Example 694, 2-(cyclopropanecarboxamido)-N-(1-(6-(2,2,3,3,3-pentafluoropropoxy)pyridin-3-yl)ethyl)pyrimidine-4-carboxamide]
15 | < 1000 | CCC(=O)Nc1cc(C(=O)NCc2ccc(OCC(C)(F)F)nc2)ccn1 [Example 719, N-((6-(2,2-difluoropropoxy)pyridin-3-yl)methyl)-2-propionamidoisonicotinamide]
16 | < 1000 | Cc1cc(CNC(=O)c2ccnc(NC(=O)C(C)C)c2)nc(OCC(F)(F)F)c1 [Example 576, 2-isobutyramido-N-((4-methyl-6-(2,2,2-trifluoroethoxy)pyridin-2-yl)methyl)isonicotinamide]
